The numbers were not newly measured in publication PMC7904743, “WIDOCK: a reactive docking protocol for virtual screening of covalent inhibitors” (Journal of Computer-Aided Molecular Design, 2021), which cites them from elsewhere.

For one series, the system named is NUDT7. As to conditions: protein labeling at 200 μM; experimental actives if % labeling higher than 50%; cited from earlier work.
Another series relates to OTUB2. As to conditions: experimental actives if % labeling higher than 50%; cited from earlier work.
The conditions of series [1]: thiol reactivity, cited from earlier work.
Where [2] appears, read: natural log of average rate constant k.
The mark [3] stands for this setting: natural logarithm of average rate constant.

Like-named read-outs stand apart in the source and are kept apart here.

Turning to `Cc1ccc(N(C(=O)CCl)C2C=CS(=O)(=O)C2)cc1` (centres unmarked) [PCM-0102539, Cc1ccc(N(C(=O)CCl)C2C=CS(=O)(=O)C2)cc1], the NUDT7 % labeling in the series with NUDT7 is reported as 33%. Moreover, the OTUB2 % labeling with OTUB2 is on record as 16%. The “ln(avg k)” value in series [1] (setting [2]) and in series [1] (setting [3]) was -15.258 each time.

Consider `O=C(CCl)Nc1cc([N+](=O)[O-])ccc1F` [PCM-0102544, O=C(CCl)Nc1cc([N+](=O)[O-])ccc1F], for which, in the series on NUDT7, the NUDT7 % labeling is 0%. Further, the OTUB2 % labeling in the series with OTUB2 is recorded as 31%. The “ln(avg k)” value in series [1] (setting [2]) and in series [1] (setting [3]) was -15.793 in each case.

On to `COC(=O)c1cc(NC(=O)CCl)cn1C` [PCM-0102545, COC(=O)c1cc(NC(=O)CCl)cn1C], for which the NUDT7 % labeling with NUDT7 is 0%. Further, the OTUB2 % labeling in the series on OTUB2 is 33%. Moreover, the “ln(avg k)” value in series [1] (setting [2]) and in series [1] (setting [3]) was -15.579 in each case.

`CC1(C)C(=O)Nc2ccccc2N1C(=O)CCl` [PCM-0102546, CC1(C)C(=O)Nc2ccccc2N1C(=O)CCl]: in the series with NUDT7, the NUDT7 % labeling is on record as 18%. In addition, the OTUB2 % labeling in the series on OTUB2 is listed as 32%. Moreover, the “ln(avg k)” value in series [1] (setting [2]) and in series [1] (setting [3]) was -15.068 each time.

With `O=C(CCl)N=c1sccn1Cc1ccccc1Cl` [PCM-0102550, O=C(CCl)N=c1sccn1Cc1ccccc1Cl], the NUDT7 % labeling in the series with NUDT7 is given as 11%. In addition, in the series with OTUB2, the OTUB2 % labeling is 0%. Further, the “ln(avg k)” value in series [1] (setting [2]) and in series [1] (setting [3]) was -15.426 in each case.

For the molecule `Cc1ccc(CN(C)C(=O)CCl)c(C)c1` [PCM-0102552, Cc1ccc(CN(C)C(=O)CCl)c(C)c1], in the series on NUDT7, the NUDT7 % labeling is 19%. In the series on OTUB2, the OTUB2 % labeling is given as 0%. For the same molecule, the “ln(avg k)” value in series [1] (setting [2]) and in series [1] (setting [3]) was -16.104 in each case.

For `CC(C)(O)CNC(=O)CCl` [PCM-0102554, CC(C)(O)CNC(=O)CCl], in the series with NUDT7, the NUDT7 % labeling was 0%. For the same molecule, in the series on OTUB2, the OTUB2 % labeling is 0%. The “ln(avg k)” value in series [1] (setting [2]) and in series [1] (setting [3]) was -16.972 throughout.

For the molecule `CC(c1ccc(Cl)cc1)N(C)C(=O)CCl` (centres unmarked) [PCM-0102556, CC(c1ccc(Cl)cc1)N(C)C(=O)CCl], the NUDT7 % labeling with NUDT7 is listed as 39%. For the same molecule, in the series on OTUB2, the OTUB2 % labeling is reported as 0%. The “ln(avg k)” value in series [1] (setting [2]) and in series [1] (setting [3]) was -15.842 in each case.

On to `COc1ccc(C2CCCCCN2C(=O)CCl)cc1` (centres unmarked) [PCM-0102558, COc1ccc(C2CCCCCN2C(=O)CCl)cc1], for which the NUDT7 % labeling in the series on NUDT7 is on record as 100%. Also, the OTUB2 % labeling in the series on OTUB2 was 0%. The “ln(avg k)” value in series [1] (setting [2]) and in series [1] (setting [3]) was -16.020 each time.

As for `CC(NC(=O)CCl)C1CC2CCC1C2` (centres unmarked) [PCM-0102572, CC(NC(=O)CCl)C1CC2CCC1C2], the NUDT7 % labeling with NUDT7 was 0%. In the series with OTUB2, the OTUB2 % labeling is listed as 0%. Further, the “ln(avg k)” value in series [1] (setting [2]) and in series [1] (setting [3]) was -17.138 throughout.

Regarding `O=C(NC1CCN(C(=O)CCl)CC1)c1ccccc1` [PCM-0102575, O=C(NC1CCN(C(=O)CCl)CC1)c1ccccc1], the NUDT7 % labeling with NUDT7 was 9%. Moreover, the OTUB2 % labeling in the series with OTUB2 is listed as 9%. In addition, the “ln(avg k)” value in series [1] (setting [2]) and in series [1] (setting [3]) was -15.398 throughout.

For the molecule `Cc1ccc(NC(=O)CCl)cc1I` [PCM-0102577, Cc1ccc(NC(=O)CCl)cc1I], in the series with NUDT7, the NUDT7 % labeling is given as 34%. Moreover, the OTUB2 % labeling with OTUB2 is 80%. In addition, the “ln(avg k)” value in series [1] (setting [2]) and in series [1] (setting [3]) was -15.945 throughout.

As to `O=C(CCl)NCc1ccc2c(c1)OCO2` [PCM-0102578, O=C(CCl)NCc1ccc2c(c1)OCO2], the NUDT7 % labeling in the series on NUDT7 was 0%. Further, the OTUB2 % labeling in the series with OTUB2 is given as 16%. For the same molecule, the “ln(avg k)” value in series [1] (setting [2]) and in series [1] (setting [3]) was -16.736 in each case.

For `Cc1cccc(N(C(=O)CCl)C2C=CS(=O)(=O)C2)c1` (centres unmarked) [PCM-0102579, Cc1cccc(N(C(=O)CCl)C2C=CS(=O)(=O)C2)c1], the NUDT7 % labeling in the series with NUDT7 is reported as 40%. Further, the OTUB2 % labeling in the series on OTUB2 is given as 0%. In addition, the “ln(avg k)” value in series [1] (setting [2]) and in series [1] (setting [3]) was -15.240 in each case.
